For the assay, the target named is T1, human CD73 (Homo sapiens, UniProt P21589).
T1 sequence (P21589 27-549): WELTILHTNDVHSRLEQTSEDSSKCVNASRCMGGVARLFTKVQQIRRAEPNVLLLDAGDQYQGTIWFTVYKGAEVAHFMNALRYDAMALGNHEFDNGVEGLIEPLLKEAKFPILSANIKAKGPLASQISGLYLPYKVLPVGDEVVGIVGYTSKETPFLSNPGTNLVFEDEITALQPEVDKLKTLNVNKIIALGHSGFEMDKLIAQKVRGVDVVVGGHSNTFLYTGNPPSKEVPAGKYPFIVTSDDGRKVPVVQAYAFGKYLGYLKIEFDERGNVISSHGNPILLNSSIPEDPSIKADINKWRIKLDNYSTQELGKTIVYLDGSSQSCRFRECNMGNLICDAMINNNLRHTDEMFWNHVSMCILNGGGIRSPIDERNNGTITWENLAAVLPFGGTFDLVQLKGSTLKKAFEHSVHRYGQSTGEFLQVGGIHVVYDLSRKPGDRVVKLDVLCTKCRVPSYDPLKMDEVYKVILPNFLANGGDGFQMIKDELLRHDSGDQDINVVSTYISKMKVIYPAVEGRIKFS
As to the kind of experiment: Inhibition of Ecto-5′-nucleotidase (CD73) activity in CHO-CD73 cells, phosphate release from AMP. Type of assay: cell-based. To be noted: CHO-K1 cells stably transfected with human CD73; 25 μM AMP; 50 minutes, 37° C.; read-out: Potency: CD73 IC50.

Usually IC50 stands for the concentration that gives 50% inhibition. On to `N#Cc1ccc(Cn2nccc2-c2cc(F)c3nnn(-c4ccc5[nH]c(=O)[nH]c5c4)c3c2)c(Br)c1` [Example 267], for which the IC50 fell in the range of 100 to 1000 nM.

Take `N#Cc1ccc(Cn2nccc2-c2cc(F)c3nnn(-c4cc5[nH]ncc5cc4F)c3c2)cc1` [Example 144]: the IC50 is below 100 nM.

Turning to `N#Cc1ccc(Cn2nccc2-c2cc(F)c3nnn(-c4ccc5[nH]c(=O)[nH]c5c4)c3c2)c(-c2ncco2)c1` [Example 299], the IC50 lay within 100 to 1000 nM.

For the molecule `N#Cc1ccc(Cn2nccc2-c2cn3c(-c4ccc5[nH]c(=O)[nH]c5c4)cnc3cn2)cc1` [Example 311], the IC50 is above 1000 nM.

Take `Cc1ccc(Cn2nccc2-c2cc(Cl)c3nnn(-c4ccc5cn[nH]c5c4)c3c2)cc1` [Example 54]: the IC50 was below 100 nM.

As to `Clc1ccc(Cn2nccc2-c2cc(Cl)c3nnn(-c4ccc5cn[nH]c5c4)c3c2)c(Br)c1` [Example 109], the IC50 lay within 100 to 1000 nM.

Turning to `Cc1cc(-n2nccc2-c2cc(Cl)c3nnn(-c4ccc5[nH]c(=O)[nH]c5c4)c3c2)ccn1` [Example 293], the IC50 was in the range of 100 to 1000 nM.

Consider `N#Cc1cnc(Cn2nccc2-c2cc(F)c3nnn(-c4ccc5[nH]c(=O)[nH]c5c4)c3c2)c2ccccc12` [Example 318], for which the IC50 is above 1000 nM.

For `Clc1cc(-c2ccnn2CCc2ccccc2)cc2c1nnn2-c1ccc2cn[nH]c2c1` [Example 124], the IC50 lay in the range of 100 to 1000 nM.

For the molecule `N#Cc1ccc(Cn2nccc2-c2cc(F)c3nnn(-c4ccc5nc[nH]c5c4)c3c2)cc1` [Example 120], the IC50 is above 1000 nM.

As for `Cc1cc(C)cc(-n2nccc2-c2cc(Cl)c3nnn(-c4ccc5[nH]c(=O)[nH]c5c4)c3c2)c1` [Example 241], the IC50 was 100 to 1000 nM.

On to `Cc1ccc(Cn2nccc2-c2cc(Cl)c3nnn(-c4ccc5cn[nH]c5c4)c3c2)c(Cl)c1` [Example 89], for which the IC50 is below 100 nM.

On to `CC(C)(O)C1CN(Cc2cc(C#N)ccc2Cn2nccc2-c2cc(F)c3nnn(-c4ccc5[nH]c(=O)[nH]c5c4)c3c2)C1` [Example 305], for which the IC50 lay in the range of 100 to 1000 nM.

With `N#Cc1ccc(Cn2nccc2-c2cc(F)c3nnn(-c4ccc5[nH]c(=O)[nH]c5c4)c3c2)c(OC(F)(F)F)c1` [Example 292], the IC50 fell in the range of 100 to 1000 nM.

For `Clc1ccc(Cn2nccc2-c2cc3c(cn2)nnn3-c2ccc3cn[nH]c3c2)c(Cl)c1` [Example 142], the IC50 is below 100 nM.

Regarding `Cn1ccc(Cn2nccc2-c2cc(F)c3nnn(-c4ccc5[nH]c(=O)[nH]c5c4)c3c2)n1` [Example 266], the IC50 was above 1000 nM.

As to `Fc1ccc(Cn2nccc2-c2cc(F)c3nnn(-c4ccc5nc[nH]c5c4)c3c2)nc1` [Example 172], the half-inhibitory concentration (IC50) was above 1000 nM.

As for `O=c1[nH]c2ccc(-n3nnc4c(F)cc(-c5ccnn5Cc5cccc(Cl)c5Cl)cc43)cc2[nH]1` [Example 283], the IC50 fell in the range of 100 to 1000 nM.

Take `Cc1ccc(Cn2nccc2-c2cc(F)c3nnn(-c4ccc5cn[nH]c5c4)c3c2)c(Cl)c1` [Example 97]: the IC50 is below 100 nM.

In the case of `Cc1nn(-c2ccc3cn[nH]c3c2)c2cc(-c3ccnn3Cc3ccc(C#N)cc3)ncc12` [Example 405], the IC50 was 100 to 1000 nM.

For the molecule `Fc1cccnc1Cn1nccc1-c1ccc2nnn(-c3ccc4cn[nH]c4c3)c2c1` [Example 98], the IC50 is above 1000 nM.

With `Cc1nn(-c2ccc3cn[nH]c3c2)c2cc(-c3ccnn3Cc3ccc(C#N)cc3)[nH]c(=O)c12` [Example 358], the IC50 was in the range of 100 to 1000 nM.

In the case of `N#Cc1ccc(Cn2nccc2-c2cnc3c(C(F)(F)F)nn(-c4ccc5cn[nH]c5c4)c3c2)cc1` [Example 376], the IC50 is above 1000 nM.

For the molecule `N#Cc1ccc(Cn2nccc2-c2cc3c(cc2CO)nnn3-c2ccc3cn[nH]c3c2)cc1` [Example 421], the IC50 was 100 to 1000 nM.

Take `N#Cc1ccc(Cn2nccc2-c2cnc3cnn(-c4ccc5cn[nH]c5c4)c3c2)cc1` [Example 152]: the half-inhibitory concentration (IC50) is above 1000 nM.

On to `CNC(=O)c1cc(C#N)ccc1Cn1nccc1-c1cc(F)c2nnn(-c3ccc4[nH]c(=O)[nH]c4c3)c2c1` [Example 307], for which the IC50 fell in the range of 100 to 1000 nM.

On to `N#Cc1ccc(Cn2nc(C(=O)O)cc2-c2cc(F)c3nnn(-c4ccc5[nH]c(=O)[nH]c5c4)c3c2)cc1` [Example 322], for which the IC50 was above 1000 nM.

For `Fc1cc(Cn2nccc2-c2ccc3nnn(-c4ccc5cn[nH]c5c4)c3c2)ccc1Cl` [Example 58], the IC50 was below 100 nM.

Consider `c1cc(-c2ccc3nnn(-c4ccc5cn[nH]c5c4)c3c2)n(Cc2ccc(C3CC3)cc2)n1` [Example 119], for which the IC50 is 100 to 1000 nM.

With `Nc1nn(-c2ccc3cn[nH]c3c2)c2cc(-c3ccnn3Cc3ccc(Cl)cn3)cnc12` [Example 274], the IC50 lay within 100 to 1000 nM.

Take `Clc1ccc(Cn2nccc2-c2cc3c(cn2)cnn3-c2ccc3cn[nH]c3c2)nc1` [Example 149]: the IC50 is above 1000 nM.

Turning to `Cc1cc2nnn(-c3ccc4cn[nH]c4c3)c2cc1-c1ccnn1Cc1ccc(C#N)cc1` [Example 384], the 50% inhibitory concentration (IC50) lay within 100 to 1000 nM.

In the case of `N#Cc1ccc(Cn2nccc2-c2cc3c(cc2Cl)nnn3-c2ccc3cn[nH]c3c2)c(F)c1` [Example 400], the IC50 was below 100 nM.

In the case of `Clc1ccc(Cn2nccc2-c2ccn3nnc(-c4ccc5cn[nH]c5c4)c3c2)c(Cl)c1` [Example 126], the IC50 is below 100 nM.

As to `N#Cc1ccc(Cn2nccc2-c2cc(F)c3nnn(-c4ccc5[nH]c(=O)[nH]c5c4)c3c2)nc1` [Example 176], the IC50 lay within 100 to 1000 nM.

As to `O=c1[nH]c2ccc(-n3nnc4ccc(-c5ccnn5Cc5ccc(F)cn5)cc43)cc2[nH]1` [Example 203], the IC50 lay within 100 to 1000 nM.

In the case of `CNc1nn(-c2ccc3cn[nH]c3c2)c2cc(-c3ccnn3Cc3ccc(C#N)cc3)cnc12` [Example 423], the IC50 is above 1000 nM.

In the case of `Cc1cccc(-n2nccc2-c2cnc3c(C)nn(-c4ccc5cn[nH]c5c4)c3c2)c1` [Example 408], the IC50 fell in the range of 100 to 1000 nM.

Turning to `N#Cc1ccc(Cn2nccc2-c2cc(F)c3c(N)nn(-c4ccc5[nH]c(=O)[nH]c5c4)c3c2)cc1` [Example 175], the IC50 was above 1000 nM.

In the case of `Cc1cnn(Cc2ccc(C#N)cc2)c1-c1cc(F)c2nnn(-c3ccc4[nH]c(=O)[nH]c4c3)c2c1` [Example 334], the IC50 fell in the range of 100 to 1000 nM.

On to `Fc1cc(Cl)ccc1Cn1nccc1-c1cc(Cl)c2nnn(-c3ccc4cn[nH]c4c3)c2c1` [Example 83], for which the IC50 is below 100 nM.

For `O=c1[nH]c2ccc(-n3nnc4c(F)cc(-c5ccnn5Cc5ccc(F)cn5)cc43)cc2[nH]1` [Example 174], the IC50 is above 1000 nM.

For `N#Cc1ccc(Cn2nccc2-c2cc3c(cc2Cl)nnn3-c2ccc3cn[nH]c3c2)cc1` [Example 150], the IC50 was below 100 nM.

With `O=c1[nH]c2ccc(-n3nnc4c(Cl)cc(-c5ccnn5Cc5ccc(F)c(F)c5)cc43)cc2[nH]1` [Example 254], the IC50 was 100 to 1000 nM.

For the molecule `O=c1[nH]c2ccc(-n3ncc4cnc(-c5ccnn5Cc5ccc(Cl)cn5)cc43)cc2[nH]1` [Example 153], the IC50 was above 1000 nM.

`N#Cc1ccc(Cn2nccc2-c2cc(F)c3nnn(-c4ccc5[nH]c(=O)[nH]c5c4)c3c2)c(F)c1` [Example 239]: the IC50 lay in the range of 100 to 1000 nM.

In the case of `N#Cc1ccc(Cn2nccc2-c2cc(Cl)c3nnn(-c4ccc5cn[nH]c5c4)c3c2)nc1` [Example 106], the IC50 lay in the range of 100 to 1000 nM.

Consider `CC(c1ccc(C#N)cc1)n1nccc1-c1cc2c(cc1Cl)nnn2-c1ccc2cn[nH]c2c1` (stereo not shown) [Example 401], for which the IC50 was in the range of 100 to 1000 nM.

Turning to `N#Cc1ccc(Cn2nccc2-c2cc(F)c3nnn(-c4ccc5[nH]c(=O)[nH]c5c4)c3c2)c(N2CCCC2=O)c1` [Example 232], the IC50 lay in the range of 100 to 1000 nM.

The record behind these values is patent US11931343B2 (ARCUS BIOSCIENCES, INC., priority 2018, dated 2024).
